For the assay, the target named is Guanine nucleotide-binding protein G(o) subunit alpha (Homo sapiens, UniProt P09471). Nature of the assay: RGS7-Galphao interaction regulators, SAR follow-up, multiplexed assay, additional SAR round (AID 2826).
Chain of Guanine nucleotide-binding protein G(o) subunit alpha (P09471 whole entry): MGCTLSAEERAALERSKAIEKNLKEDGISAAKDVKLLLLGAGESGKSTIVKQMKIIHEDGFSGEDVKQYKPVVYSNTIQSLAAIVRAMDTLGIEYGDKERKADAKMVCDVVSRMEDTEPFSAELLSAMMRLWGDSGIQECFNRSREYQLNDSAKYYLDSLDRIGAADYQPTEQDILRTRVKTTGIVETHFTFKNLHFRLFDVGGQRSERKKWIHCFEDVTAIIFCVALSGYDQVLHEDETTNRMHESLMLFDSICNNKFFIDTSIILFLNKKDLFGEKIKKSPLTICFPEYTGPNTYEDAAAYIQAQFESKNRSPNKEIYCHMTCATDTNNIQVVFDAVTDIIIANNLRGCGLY
Take `O=C(c1sc2cc([N+](=O)[O-])ccc2c1Cl)N1CCNCC1`: the EC50 (as a rule, the concentration giving half of the maximal effect) is more than 30 µM.

The compound `O=C(NCCCN1CCOCC1)c1sc2cc([N+](=O)[O-])ccc2c1Cl` [3-chloranyl-N-(3-morpholin-4-ylpropyl)-6-nitro-1-benzothiophene-2-carboxamide] had an EC50 of more than 30 µM.

`O=C(NCCCn1ccnc1)c1sc2cc([N+](=O)[O-])ccc2c1Cl` [3-chloro-N-[3-(1-imidazolyl)propyl]-6-nitro-1-benzothiophene-2-carboxamide]: the EC50 was more than 30 µM.

`NC(=O)c1sc2cc([N+](=O)[O-])ccc2c1Cl` [KSC-1-100] yielded an EC50 of more than 30 µM.

In turn, `Cc1ccc2c(Cl)c(C(=O)NCCCN3CCOCC3)sc2c1` [KUC103874N] returned a half-maximal effective concentration (EC50) of more than 30 µM.

For the origin of these results see BindingDB's records for doi:10.7270/Q269721H (Nmmlsc, 2010).
